The assay addresses T1, Kv4.2 (Homo sapiens, UniProt Q9NZV8).
T1 construct: expressed in transfected cells; host or cells: Xenopus laevis oocytes (cRNA injection, pRAT vector)
T1 sequence (Q9NZV8 1-630): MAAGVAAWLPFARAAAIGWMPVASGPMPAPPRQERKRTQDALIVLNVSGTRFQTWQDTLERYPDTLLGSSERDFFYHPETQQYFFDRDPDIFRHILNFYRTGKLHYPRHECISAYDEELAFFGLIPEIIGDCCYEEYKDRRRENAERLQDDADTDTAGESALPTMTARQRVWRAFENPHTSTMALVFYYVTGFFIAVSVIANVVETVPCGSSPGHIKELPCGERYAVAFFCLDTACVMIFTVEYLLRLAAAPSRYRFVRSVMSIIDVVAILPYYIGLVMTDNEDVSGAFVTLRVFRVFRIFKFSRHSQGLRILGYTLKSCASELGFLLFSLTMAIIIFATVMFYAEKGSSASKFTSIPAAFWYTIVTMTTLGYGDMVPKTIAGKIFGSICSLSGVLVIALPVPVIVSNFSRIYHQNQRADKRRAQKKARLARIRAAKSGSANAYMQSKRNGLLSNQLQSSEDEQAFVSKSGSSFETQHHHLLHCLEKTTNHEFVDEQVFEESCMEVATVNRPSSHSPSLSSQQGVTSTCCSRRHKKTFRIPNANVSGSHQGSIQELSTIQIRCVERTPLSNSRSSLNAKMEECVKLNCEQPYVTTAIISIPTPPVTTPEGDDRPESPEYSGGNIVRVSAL
Put plainly: TEVC of X. laevis oocytes expressing Kv4.2. Format: cell-based. The text has this: Kv2.1 mutants were constructed using the QuickChange Multi Site-Directed Mutagenesis Kit (Stratagene, La Jolla, Calif.). Mutant Kv2.1 genes (in the pGA1 oocyte expression vector for oocyte expression) were sequenced in their entirety to confirm appropriate mutations and check for inadvertent mutations, and then subcloned into a wild-type pGA1 backbone. For oocyte expression, Kv3.4 was in pBF1, Kv4.2 was in pRAT. cRNA transcripts were produced from SacII-linearized (Kv2.1), Mlullinearized (Kv3.4) and Not1-linearized (Kv4.2) DNA templates using the T3 (Kv2.1), SP6 (Kv3.4) and T7 (Kv4.2) mMessage mMachine kits (Ambion, Austin, Tex.). cRNA was quantified by spectrophotometry and its size integrity verified by gel electophoresis. Defolliculated stage V and VI Xenopus laevis oocytes (purchased from Nasco, Grand Island, N.Y.) were injected with 5 ng of cRNA encoding Kv2.1, Kv3.4 or Kv4.2. Chinese Hamster Ovary (CHO) cells were transfected with 0.25 μg Kv2.1 cDNA, 2 μg blank plasmid and 2 μg Green fluorescent Protein in pBOB using Supetfect transfection reagent (Qiagen) 24 hours before whole-cell voltage clamp studies.
Whole-cell two-electrode voltage-clamp (TEVC) recordings were performed on X laevis oocytes expressing cloned Kv2.1, Kv3.4 or Kv4.2 using a Warner OC-725C amplifier and pClamp9 (Axon Instruments, Foster City, Calif.) software. Oocytes were bathed in a small-volume Warner oocyte bath and viewed with a Fisher dissection microscope. Bath solution for whole-cell oocyte recordings was (in mM): 96 NaCl, 4 KCl, 0.7 MgCl2, 1 CaCl2, 10 HEPES (pH 7.4); whole-cell oocyte TEVC pipettes were of 0.2-2 M resistance when filled with 3 M KCl. Experiments were performed 24-48 hours after cRNA injection. For assessment of current-voltage relationships in the absence or presence of dabco derivatives, oocytes were held at −80 mV, stepped for 2 seconds at voltages between −80 mV and +60 mV in 20 mV steps (Kv2.1) or between −80 and +50 mV in 10 mV steps (Kv3.4), then held for 500 ms at −40 mV before returning to the holding potential. […]

Molecules are shown by their SMILES.

As for `C(CCCC[N+]12CCN(CC1)CC2)CCC[N+]12CCN(CC1)CC2` [TG27, 1,8-[bis(4-aza-1-azoniabicyclo[2.2.2]octanyl)]octane], the “block of Kv4.2” value (1 mM) was found to be 3%. On to `c1cc(C[N+]23CCN(CC2)CC3)ccc1C[N+]12CCN(CC1)CC2` [JC638.2α, α,α′-[bis(4-aza-1-azoniabicyclo[2.2.2]octanyl)]p-xylene], for which, for the setting “0.5 mM”, the “block of Kv4.2” value was 38%. Take `CCCCCCCCCCCC[N+]12CCN(CC1)CC2` [JE188, 1-aza-4-azonia-4-dodecylbicyclo[2.2.2]octane]: for the setting “100 μM”, the “block of Kv4.2” value is reported as 3%.
